Assay results from patent US12606561B2, “Substituted pyrazolo[1,5-a][1,3,5]triazines as CDK inhibitors” (QURIENT CO., LTD., priority 2018, dated 2026).
Read-outs that look alike come from different tables or passages of the source.

Key:
CDK5/p25 = molecular target: T1, CDK5/p25 (Homo sapiens, UniProt Q00535); assay: Enzymatic assay for CDK5 (LANCE Ultra kinase assay, FRET based); format: biochemical; conditions: ATP at Km
T1 construct: purchased Invitrogen PR8543B
Summary of the method: (§1)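 Inhibition was measured at ATP Km with 68 nM ULight-MBP peptide and CDK2/Cyclin A ([…]) or CDK5/p25 ([…]), using 8-dose 4-fold compound dilutions from DMSO. Kinase reaction ran 60 min at 23° C, then Eu anti-phospho-MBP plus EDTA were added for another 60 min before the fluorescence read.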

CDK2/Cyclin A = molecular target: T2, CDK2/Cyclin A (Homo sapiens, UniProt P24941); assay: Enzymatic assay for CDK2 (LANCE Ultra kinase assay, FRET based); format: biochemical; conditions: ATP at Km
T2 construct: purchased Invitrogen PV6290
Summary of the method: as §1

CDK7/Cyclin H/MNAT1 = molecular target: T3, CDK7/Cyclin H/MNAT1 (Homo sapiens, UniProt P50613); assay: Enzymatic assay for CDK7 (LANCE Ultra kinase assay, FRET based); format: biochemical; conditions: for IC50: ATP at Km
T3 construct: purchased Invitrogen PR6749B
T3 sequence (P50613 whole entry): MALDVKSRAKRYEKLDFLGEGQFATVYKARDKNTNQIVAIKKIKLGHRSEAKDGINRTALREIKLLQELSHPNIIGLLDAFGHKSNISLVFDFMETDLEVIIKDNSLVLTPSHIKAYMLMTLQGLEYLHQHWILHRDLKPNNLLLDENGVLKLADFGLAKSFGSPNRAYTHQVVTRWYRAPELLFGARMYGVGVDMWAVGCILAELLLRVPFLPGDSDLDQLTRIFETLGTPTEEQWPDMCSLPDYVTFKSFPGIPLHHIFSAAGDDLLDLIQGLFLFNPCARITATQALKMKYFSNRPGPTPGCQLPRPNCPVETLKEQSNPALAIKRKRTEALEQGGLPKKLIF
T3 sequence (P51946 whole entry partner): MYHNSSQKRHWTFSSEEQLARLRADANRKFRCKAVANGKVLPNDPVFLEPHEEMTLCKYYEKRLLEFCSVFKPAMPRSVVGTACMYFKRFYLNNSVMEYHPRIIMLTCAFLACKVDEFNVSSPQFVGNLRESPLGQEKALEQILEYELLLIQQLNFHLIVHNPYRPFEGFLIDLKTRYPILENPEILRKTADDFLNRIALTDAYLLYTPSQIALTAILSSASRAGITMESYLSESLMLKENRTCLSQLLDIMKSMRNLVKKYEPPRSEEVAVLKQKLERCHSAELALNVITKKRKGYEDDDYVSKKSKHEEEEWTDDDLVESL
T3 sequence (P51948 whole entry partner): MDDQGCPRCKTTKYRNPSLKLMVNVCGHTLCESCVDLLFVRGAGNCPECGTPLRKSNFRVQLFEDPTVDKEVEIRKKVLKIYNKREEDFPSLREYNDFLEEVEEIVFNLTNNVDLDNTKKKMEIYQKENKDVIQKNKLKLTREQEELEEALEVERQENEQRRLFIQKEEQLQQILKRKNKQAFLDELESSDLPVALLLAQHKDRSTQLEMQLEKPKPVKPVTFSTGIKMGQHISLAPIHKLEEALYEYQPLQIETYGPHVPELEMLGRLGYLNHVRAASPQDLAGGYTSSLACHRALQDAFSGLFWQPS
Summary of the method: (§2)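 Purified CDK–cyclin enzyme, ATP at Km; ULight peptide substrate; TR-FRET via Eu anti-phospho-Ab; inhibition scored.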

H460 = assay: Cellular H460 viability assay (CellTiter-Glo, 72 hours); format: cell-based; conditions: Homo sapiens, NCI-H460; H460 cells
Experimental: All cell lines were routinely tested for mycoplasma.
To effect of the CDK7 inhibitor to inhibit the growth of target cancer cells, viability assay were conducted a 72 hour time period. Briefly, the candidate cell line was plated in 96 well plate at the following density of cells respectively. 1×10^4 cells/well for MV4-11, 5×10^3 for H460 and OVCAR-3, and 1×10^3 for A2780. […] DMSO solvent without compound served as a control and final DMSO concentration lest than 0.1%. After 72 hours of incubation at 37° C., 5% CO2 incubator, cells were analyzed for the viability using the CellTiter-Glo Luminescent Cell Viability Assay (Promega, Cat #G7570). All viability assays were performed in duplicate and Luminescence was read using an Envision (Perkin Elmer, USA). Data was analyzed using XLfit software.

CDK1/Cyclin B = molecular target: T4, CDK1/Cyclin B (Homo sapiens, UniProt P06493); assay: Enzymatic assay for CDK1 (LANCE Ultra kinase assay, FRET based); format: biochemical
T4 construct: purchased Invitrogen PR4768C
T4 sequence (P06493 whole entry): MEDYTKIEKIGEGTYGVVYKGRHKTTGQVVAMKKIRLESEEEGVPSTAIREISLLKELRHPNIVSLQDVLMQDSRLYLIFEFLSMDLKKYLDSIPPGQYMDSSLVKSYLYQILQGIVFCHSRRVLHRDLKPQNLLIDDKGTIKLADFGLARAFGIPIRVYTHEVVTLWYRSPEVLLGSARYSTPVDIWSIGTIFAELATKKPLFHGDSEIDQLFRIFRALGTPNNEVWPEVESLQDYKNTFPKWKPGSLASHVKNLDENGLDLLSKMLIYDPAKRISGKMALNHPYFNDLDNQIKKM
T4 sequence (P14635 whole entry partner): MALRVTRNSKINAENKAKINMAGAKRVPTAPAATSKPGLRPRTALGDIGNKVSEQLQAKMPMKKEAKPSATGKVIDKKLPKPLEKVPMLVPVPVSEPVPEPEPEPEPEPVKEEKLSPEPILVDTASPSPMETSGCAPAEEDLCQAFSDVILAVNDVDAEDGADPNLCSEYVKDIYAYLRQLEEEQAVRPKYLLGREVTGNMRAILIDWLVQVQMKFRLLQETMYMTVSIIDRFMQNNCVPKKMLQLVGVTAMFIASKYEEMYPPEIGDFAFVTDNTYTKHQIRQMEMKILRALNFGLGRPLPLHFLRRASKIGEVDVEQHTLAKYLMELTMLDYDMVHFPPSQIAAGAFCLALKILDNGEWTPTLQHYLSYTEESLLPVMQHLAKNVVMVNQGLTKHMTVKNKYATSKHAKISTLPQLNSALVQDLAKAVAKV
Summary of the method: as §2

OVCAR-3 = OVCAR-3 viability assay (CellTiter-Glo, 72 hours); format: cell-based; conditions: Homo sapiens; OVCAR-3 cells
Summary of the method: (§3)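 RPMI-1640/10% FBS; plate cells (MV4-11 1×10^4, OVCAR-3 5×10^3, A2780 1×10^3 per well); 24 h later add compound 0.0015–10 uM; 72 h, 37° C; CellTiter-Glo luminescence, duplicate wells.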

A2780 = A2780 viability assay (CellTiter-Glo, 72 hours); format: cell-based; conditions: Homo sapiens; A2780 cells
Summary of the method: as §3

MV4-11 = assay: Cellular MV4-11 viability assay (CellTiter-Glo, 72 hours); format: cell-based; conditions: Homo sapiens; MV4-11 cells
Summary of the method: as §3

[1] = ATP at Km, read-out: CDK1 enzymatic activity IC50

T1 sequence (Q00535 whole entry): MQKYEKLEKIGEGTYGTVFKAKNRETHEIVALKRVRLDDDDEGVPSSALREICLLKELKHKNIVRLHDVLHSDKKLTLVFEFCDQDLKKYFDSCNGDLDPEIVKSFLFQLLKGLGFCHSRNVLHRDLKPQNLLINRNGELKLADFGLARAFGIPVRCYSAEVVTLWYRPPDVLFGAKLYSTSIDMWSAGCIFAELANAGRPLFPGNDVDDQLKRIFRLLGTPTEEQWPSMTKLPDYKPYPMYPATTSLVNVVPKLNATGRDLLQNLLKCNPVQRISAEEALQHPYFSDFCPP
T1 sequence (Q15078 99-307 partner limits assumed): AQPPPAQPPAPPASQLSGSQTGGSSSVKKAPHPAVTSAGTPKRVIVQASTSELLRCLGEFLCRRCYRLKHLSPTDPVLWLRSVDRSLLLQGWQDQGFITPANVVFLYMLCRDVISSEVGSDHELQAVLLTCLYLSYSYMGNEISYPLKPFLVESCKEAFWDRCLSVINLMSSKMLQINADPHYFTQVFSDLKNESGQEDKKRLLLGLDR

Row | IC50 (CDK5/p25) [nM] | IC50 (CDK2/Cyclin A) [nM] | IC50 (CDK7/Cyclin H/MNAT1) [nM] | CDK1/CDK7: Selectivity of CDK7 inhibition over CDK1 inhibition (CDK7/Cyclin H/MNAT1) | CDK2/CDK7: Selectivity of CDK7 inhibition over CDK2 inhibition (CDK7/Cyclin H/MNAT1) | CDK5/CDK7: Selectivity of CDK7 inhibition over CDK5 inhibition (CDK7/Cyclin H/MNAT1) | IC50 (H460) [nM] | IC50 (CDK1/Cyclin B; [1]) [nM] | IC50 (OVCAR-3) [nM] | IC50 (A2780) [nM] | IC50 (MV4-11) [nM] | SMILES | IC50 (CDK1/Cyclin B) [nM]
1 | 100 to 1000 | 100 to 1000 | < 100 | A (A indicates [fold] > 500) | B (B indicates 50 < [fold] ≤ 500) | B (B indicates 50 < [fold] ≤ 500) | < 1000 | > 1000 | – | – | – | CC(C)c1cnn2c(NCc3cccc(OC4CCCN(C(=O)/C=C/CN(C)C)CC4)c3)nc(N3CCC(N)CC3)nc12 (racemic) [Compound 18] | –
2 | 100 to 1000 | > 1000 | < 100 | A (A indicates [fold] > 500) | B (B indicates 50 < [fold] ≤ 500) | B (B indicates 50 < [fold] ≤ 500) | 1000 to 10000 | > 1000 | – | – | – | CC(C)c1cnn2c(NCc3cccc(NC4CCCN(C(=O)/C=C/CN(C)C)CC4)c3)nc(N3CCC(N)CC3)nc12 (racemic) [Compound 21] | –
3 | 100 to 1000 | 100 to 1000 | < 100 | A (A indicates [fold] > 500) | B (B indicates 50 < [fold] ≤ 500) | C (C indicates [fold] ≤ 50) | 1000 to 10000 | > 1000 | – | – | – | CC(C)c1cnn2c(NCc3cccc(NC(=O)C4CCCN(C(=O)/C=C/CN(C)C)CC4)c3)nc(N3CCC(N)CC3)nc12 (racemic) [Compound 22] | –
4 | 100 to 1000 | 100 to 1000 | < 100 | B (B indicates 50 < [fold] ≤ 500) | B (B indicates 50 < [fold] ≤ 500) | C (C indicates [fold] ≤ 50) | < 1000 | 100 to 1000 | – | – | – | CC(C)c1cnn2c(NCc3cccc(Oc4cccc(NC(=O)/C=C/CN(C)C)c4)c3)nc(N3CCC(N)CC3)nc12 [Compound 2] | –
5 | – | – | – | – | – | – | 1000 to 10000 | – | – | – | – | CC(C)c1cnn2c(NCc3ccccc3-c3nccc4c(NC(=O)/C=C/CN(C)C)cccc34)nc(N3CCC(N)CC3)nc12 [Compound 9] | –
6 | – | – | – | – | – | – | < 1000 | – | – | – | – | CC(C)c1cnn2c(NCc3cccc(Oc4ccc(F)c(NC(=O)/C=C/CN(C)C)c4)c3)nc(N3CCC(N)CC3)nc12 [Compound 13] | –
7 | > 1000 | > 1000 | < 100 | A (A indicates [fold] > 500) | A (A indicates [fold] > 500) | A (A indicates [fold] > 500) | – | > 1000 | < 1000 | < 1000 | < 1000 | C/C=C/C(=O)Nc1ccc2c(-c3ccccc3CNc3nc(NC[C@H]4CCNC[C@@H]4O)nc4c(C(C)C)cnn34)nccc2c1 [Compound 68] | –
8 | > 1000 | > 1000 | < 100 | B (B indicates 50 < [fold] ≤ 500) | B (B indicates 50 < [fold] ≤ 500) | B (B indicates 50 < [fold] ≤ 500) | – | > 1000 | < 1000 | < 1000 | < 1000 | C/C=C/C(=O)Nc1ccc2c(-c3ccccc3CNc3nc(N4CCNCC4)nc4c(C(C)C)cnn34)nccc2c1 [Compound 71] | –
9 | > 1000 | > 1000 | < 100 | A (A indicates [fold] > 500) | A (A indicates [fold] > 500) | A (A indicates [fold] > 500) | – | > 1000 | < 1000 | < 1000 | < 1000 | C/C=C/C(=O)Nc1ccc2c(-c3ccccc3CNc3cc(NC[C@H]4CCNC[C@@H]4O)nc4c(C(C)C)cnn34)nccc2c1 [Compound 72] | –
10 | > 1000 | > 1000 | < 100 | A (A indicates [fold] > 500) | A (A indicates [fold] > 500) | B (B indicates 50 < [fold] ≤ 500) | – | > 1000 | 1000 to 10000 | 1000 to 10000 | < 1000 | C/C=C/C(=O)Nc1cccc2cc(-c3cccc(C)c3CNc3nc(NC[C@H]4CCNC[C@@H]4O)nc4c(C(C)C)cnn34)[nH]c12 [Compound 73] | –
11 | 100 to 1000 | > 1000 | < 100 | B (B indicates 50 < [fold] ≤ 500) | B (B indicates 50 < [fold] ≤ 500) | B (B indicates 50 < [fold] ≤ 500) | – | > 1000 | < 1000 | < 1000 | < 1000 | C/C=C/C(=O)Nc1ccc2c(ccn2-c2ccccc2CNc2nc(NC[C@H]3CCNC[C@@H]3O)nc3c(C(C)C)cnn23)c1 [Compound 74] | –
12 | > 1000 | > 1000 | 100 to 1000 | B (B indicates 50 < [fold] ≤ 500) | B (B indicates 50 < [fold] ≤ 500) | B (B indicates 50 < [fold] ≤ 500) | – | > 1000 | < 1000 | < 1000 | < 1000 | CC(C)c1cnn2c(NCc3ccccc3-c3nccc4cc(NC(=O)/C=C/CN(C)C)ccc34)nc(N3CCC(NC(=O)OC(C)(C)C)CC3)nc12 [Compound 75] | –
13 | > 1000 | > 1000 | < 100 | A (A indicates [fold] > 500) | A (A indicates [fold] > 500) | A (A indicates [fold] > 500) | – | > 1000 | < 1000 | < 1000 | < 1000 | CC(C)c1cnn2c(NCc3ccccc3-c3nccc4cc(NC(=O)/C=C/CN5CCCCC5)ccc34)nc(NC[C@H]3CCNC[C@@H]3O)nc12 [Compound 76] | –
14 | > 1000 | > 1000 | < 100 | A (A indicates [fold] > 500) | A (A indicates [fold] > 500) | A (A indicates [fold] > 500) | – | > 1000 | 1000 to 10000 | 1000 to 10000 | < 1000 | C/C=C/C(=O)Nc1ccc2c(-c3ccccc3CNc3nc(NC[C@H]4CNC[C@@H]4O)nc4c(C(C)C)cnn34)nccc2c1 [Compound 77] | –
15 | > 1000 | > 1000 | < 100 | A (A indicates [fold] > 500) | A (A indicates [fold] > 500) | B (B indicates 50 < [fold] ≤ 500) | – | > 1000 | 1000 to 10000 | < 1000 | < 1000 | C=C(F)C(=O)Nc1cccc2cc(-c3cccc(C)c3CNc3nc(NC[C@H]4CCNC[C@@H]4O)nc4c(C(C)C)cnn34)[nH]c12 [Compound 78] | –
16 | > 1000 | > 1000 | < 100 | A (A indicates [fold] > 500) | A (A indicates [fold] > 500) | A (A indicates [fold] > 500) | – | > 1000 | < 1000 | < 1000 | < 1000 | C=C(F)C(=O)Nc1ccc2c(-c3ccccc3CNc3nc(N4CCNCC4)nc4c(C(C)C)cnn34)nccc2c1 [Compound 79] | –

Row | SMILES | IC50 (CDK5/p25) [nM] | IC50 (CDK2/Cyclin A) [nM] | IC50 (CDK7/Cyclin H/MNAT1) [nM] | CDK1/CDK7: Selectivity of CDK7 inhibition over CDK1 inhibition (CDK7/Cyclin H/MNAT1) | CDK2/CDK7: Selectivity of CDK7 inhibition over CDK2 inhibition (CDK7/Cyclin H/MNAT1) | CDK5/CDK7: Selectivity of CDK7 inhibition over CDK5 inhibition (CDK7/Cyclin H/MNAT1) | IC50 (H460) [nM] | IC50 (CDK1/Cyclin B; [1]) [nM] | IC50 (OVCAR-3) [nM] | IC50 (A2780) [nM] | IC50 (MV4-11) [nM] | IC50 (CDK1/Cyclin B) [nM]
17 | CC(C)c1cnn2c(NCc3cccc(NC(=O)c4cccc(NC(=O)/C=C/CN(C)C)c4)c3)nc(N3CCC(N)CC3)nc12 [Compound 1] | 100 to 1000 | 100 to 1000 | < 100 | B (B indicates 50 < [fold] ≤ 500) | B (B indicates 50 < [fold] ≤ 500) | C (C indicates [fold] ≤ 50) | 1000 to 10000 | – | – | – | – | > 1000
